From ChEMBL document CHEMBL1201862, “PubChem BioAssay data set” (2004)
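Compound exposure: 48 hours, 5 concentrations, 96-well plates. Abbreviation: GI50, concentration required for 50% inhibition of growth.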 Calls of active or inactive are those of the source. Rule as the data show it: active = GI50 up to about 1.1 µM and inactive = higher.

Columns and labels:
Experiment in all cases: growth of human tumour cells (NCI), 48 h
A549 = tested on: A549
COLO 205 = tested on: COLO 205
HCC 2998 = tested on: HCC 2998
HL-60 = tested on: HL-60
HOP-62 = tested on: HOP-62
KM12 = tested on: KM12
M14 = tested on: M14
Malme-3M = tested on: Malme-3M
NCI-H522 = tested on: NCI-H522
OVCAR-3 = tested on: OVCAR-3
OVCAR-5 = tested on: OVCAR-5
OVCAR-8 = tested on: OVCAR-8
SK-MEL-28 = tested on: SK-MEL-28
SK-MEL-2 = tested on: SK-MEL-2
SK-MEL-5 = tested on: SK-MEL-5
TK-10 = tested on: TK-10
U-251 = tested on: U-251
UO-31 = tested on: UO-31
RPMI-8226 = tested on: RPMI-8226

| Compound | GI50 (A549) | GI50 (COLO 205) | GI50 (HCC 2998) | GI50 (HL-60) | GI50 (HOP-62) | GI50 (KM12) | GI50 (M14) | GI50 (Malme-3M) | GI50 (NCI-H522) | GI50 (OVCAR-3) | GI50 (OVCAR-5) | GI50 (OVCAR-8) | GI50 (SK-MEL-28) | GI50 (SK-MEL-2) | GI50 (SK-MEL-5) | GI50 (TK-10) | GI50 (U-251) | GI50 (UO-31) | GI50 (RPMI-8226) |
| --- | --- | --- | --- | --- | --- | --- | --- | --- | --- | --- | --- | --- | --- | --- | --- | --- | --- | --- | --- |
| NC(N)=NCCC[C@H](N)C(=O)NCC(=O)N[C@@H](CC(=O)O)c1ncc(NC(=O)C(F)(F)F)o1 | > 25 µM (inactive) | > 25 µM (inactive) | 17.8 µM (inactive) | > 25 µM (inactive) | > 25 µM (inactive) | > 25 µM (inactive) | > 25 µM (inactive) | > 25 µM (inactive) | > 25 µM (inactive) | > 25 µM (inactive) | > 25 µM (inactive) | > 25 µM (inactive) | > 25 µM (inactive) | > 25 µM (inactive) | > 25 µM (inactive) | > 25 µM (inactive) | > 25 µM (inactive) | > 25 µM (inactive) |  |
| Nc1nc2ncn(CC(O)COC(=O)c3ccccc3)c2c(=O)[nH]1 (stereo unspecified) | > 100 µM (inactive) | > 100 µM (inactive) |  | > 100 µM (inactive) | > 100 µM (inactive) | > 100 µM (inactive) | > 100 µM (inactive) | > 100 µM (inactive) | > 100 µM (inactive) | > 100 µM (inactive) | > 100 µM (inactive) | > 100 µM (inactive) | > 100 µM (inactive) | > 100 µM (inactive) | > 100 µM (inactive) | > 100 µM (inactive) | > 100 µM (inactive) | > 100 µM (inactive) | > 100 µM (inactive) |
| N/C(=N\c1ccc(Cl)cc1)NS(=O)(=O)c1ccc(-c2ncccc2C(F)(F)F)s1 | 15.2 µM (inactive) | 42 µM (inactive) |  | 15.2 µM (inactive) | 18.2 µM (inactive) | 23.9 µM (inactive) | 14.6 µM (inactive) | 15.2 µM (inactive) | 10.4 µM (inactive) | 17.6 µM (inactive) | 24.3 µM (inactive) | 14.6 µM (inactive) | 16.9 µM (inactive) | 15.8 µM (inactive) | 20.5 µM (inactive) | 13.4 µM (inactive) | 13.1 µM (inactive) | 17.2 µM (inactive) | 17.3 µM (inactive) |
| Cc1ccc(C)c(N2C(=O)C(=O)C(c3nc4ccccc4o3)C(=O)C2=O)c1 | > 100 µM (inactive) | 32.9 µM (inactive) | > 100 µM (inactive) | 17.3 µM (inactive) | > 100 µM (inactive) | > 100 µM (inactive) | 36.1 µM (inactive) | 49.2 µM (inactive) |  | 39.4 µM (inactive) |  | > 100 µM (inactive) | 34 µM (inactive) | > 100 µM (inactive) | 67.5 µM (inactive) | > 100 µM (inactive) | 96.6 µM (inactive) | > 100 µM (inactive) |  |
| N#Cc1cc2c(cc1Cl)Sc1nccn1S2(=O)=O | 12.8 µM (inactive) | 12.4 µM (inactive) |  | 3.08 µM (inactive) | 3.38 µM (inactive) | 5.79 µM (inactive) | 0.619 µM (active) | 6.79 µM (inactive) | 1.15 µM (inactive) | 0.668 µM (active) | 14.4 µM (inactive) | 2.82 µM (inactive) | 2.32 µM (inactive) | 3.74 µM (inactive) | 9.93 µM (inactive) | 13.5 µM (inactive) | 1.6 µM (inactive) | 5.52 µM (inactive) | 2.92 µM (inactive) |
| COC(=O)CCC1CCc2c(OC)ccc(O)c2C1=O (stereo unspecified) | > 100 µM (inactive) | > 100 µM (inactive) | > 100 µM (inactive) | > 100 µM (inactive) | > 100 µM (inactive) | > 100 µM (inactive) | > 100 µM (inactive) | > 100 µM (inactive) | > 100 µM (inactive) | > 100 µM (inactive) |  | > 100 µM (inactive) | > 100 µM (inactive) | > 100 µM (inactive) | > 100 µM (inactive) | > 100 µM (inactive) | > 100 µM (inactive) | 55.8 µM (inactive) | > 100 µM (inactive) |
| CC1=COC(C)(C=C(C#N)C#N)CC1 (stereo unspecified) | > 100 µM (inactive) | > 100 µM (inactive) | > 100 µM (inactive) | 21.1 µM (inactive) | > 100 µM (inactive) | 34.8 µM (inactive) | 78.5 µM (inactive) | > 100 µM (inactive) |  |  | > 100 µM (inactive) | 52.6 µM (inactive) | 71 µM (inactive) |  | 58.1 µM (inactive) | > 100 µM (inactive) | > 100 µM (inactive) | > 100 µM (inactive) | 38.5 µM (inactive) |
| Cc1cccc(C2SCc3nc4ccccc4n32)c1 (stereo unspecified) | 37 µM (inactive) | > 10 µM (inactive) |  | 6.78 µM (inactive) | 23.6 µM (inactive) | 19.8 µM (inactive) | 26.7 µM (inactive) | 14.7 µM (inactive) | 17.7 µM (inactive) | 17.8 µM (inactive) | 5.25 µM (inactive) | 36.1 µM (inactive) | 26.1 µM (inactive) | 18.5 µM (inactive) | 14.3 µM (inactive) | 21.9 µM (inactive) | 19.7 µM (inactive) |  | 13.9 µM (inactive) |
| CC1=CC(=O)CCC2(C)C1CC[C@@H]2OC=O (stereo partly specified) | > 100 µM (inactive) | > 100 µM (inactive) | > 100 µM (inactive) | > 100 µM (inactive) | 53.6 µM (inactive) | > 100 µM (inactive) | > 100 µM (inactive) |  | > 100 µM (inactive) | > 100 µM (inactive) | > 100 µM (inactive) | > 100 µM (inactive) | > 100 µM (inactive) | > 100 µM (inactive) | > 100 µM (inactive) | > 100 µM (inactive) | > 100 µM (inactive) | > 100 µM (inactive) | > 100 µM (inactive) |
| CC1OC(OC2C(OC(=O)[C@]34CCC(C)(C)CC3C3=CCC5[C@@]6(C)C[C@H](O)[C@H](OC7OC(CO)C(O)C(O)C7N)[C@@](C)(C(=O)O)C6CC[C@@]5(C)C3(C)CC4)OCC(O)C2O)C(O)C(O)C1OC1OCC(O)C(O)C1O (stereo partly specified) | > 100 µM (inactive) | > 100 µM (inactive) | > 100 µM (inactive) | > 100 µM (inactive) | > 100 µM (inactive) | > 100 µM (inactive) |  | > 100 µM (inactive) | > 100 µM (inactive) | > 100 µM (inactive) | > 100 µM (inactive) | > 100 µM (inactive) | > 100 µM (inactive) | > 100 µM (inactive) | > 100 µM (inactive) | > 100 µM (inactive) | > 100 µM (inactive) | > 100 µM (inactive) | > 100 µM (inactive) |
| CC1=C2C(=O)C3[C@@H](CCC4=CC(=O)CC[C@@]43C)C2CC[C@]12O[C@@H]1C[C@H](C)CN[C@H]1[C@H]2C (stereo partly specified) | 28 µM (inactive) | 73.6 µM (inactive) | > 100 µM (inactive) | 12.3 µM (inactive) | 16.9 µM (inactive) | 30.1 µM (inactive) | 59 µM (inactive) |  | 21 µM (inactive) | 45.8 µM (inactive) |  | 40.7 µM (inactive) | 97.1 µM (inactive) | 21.1 µM (inactive) | 42.1 µM (inactive) | 29.2 µM (inactive) | 21.4 µM (inactive) | 63.7 µM (inactive) | 20.7 µM (inactive) |
| COc1ccc(/C=N/Nc2nc3ccccc3c(=O)n2-c2ccccc2)c(OCc2ccccc2)c1 | > 100 µM (inactive) | > 100 µM (inactive) | > 100 µM (inactive) | > 100 µM (inactive) | > 100 µM (inactive) | > 100 µM (inactive) | 83.9 µM (inactive) | > 100 µM (inactive) | > 100 µM (inactive) | > 100 µM (inactive) | > 100 µM (inactive) | > 100 µM (inactive) | > 100 µM (inactive) | 0.0656 µM (active) | > 100 µM (inactive) | > 100 µM (inactive) | > 100 µM (inactive) | > 100 µM (inactive) |  |
| CC/C(CC(=O)CCC(=O)Nc1c(C)cccc1C)=N\NC(=O)NN | > 100 µM (inactive) | > 100 µM (inactive) | > 100 µM (inactive) | > 100 µM (inactive) |  | > 100 µM (inactive) | > 100 µM (inactive) | > 100 µM (inactive) |  | > 100 µM (inactive) | > 100 µM (inactive) | > 100 µM (inactive) | > 10 µM (inactive) | > 100 µM (inactive) | > 100 µM (inactive) | > 100 µM (inactive) | > 100 µM (inactive) | > 100 µM (inactive) |  |
| CC1=CCC2(C#N)CCC1C2=O (stereo unspecified) | > 100 µM (inactive) | > 100 µM (inactive) |  | > 100 µM (inactive) | > 100 µM (inactive) | > 100 µM (inactive) | > 100 µM (inactive) | > 100 µM (inactive) | > 100 µM (inactive) | > 100 µM (inactive) | > 100 µM (inactive) | > 100 µM (inactive) |  | > 100 µM (inactive) | > 100 µM (inactive) | > 100 µM (inactive) | > 100 µM (inactive) | > 100 µM (inactive) | > 100 µM (inactive) |
| CCOC(=O)CN(Cc1ccccc1)Cc1c(C(=O)c2ccccc2)c2ccccc2n1C(=O)c1ccccc1 | > 100 µM (inactive) | > 100 µM (inactive) | > 100 µM (inactive) |  | > 100 µM (inactive) | > 100 µM (inactive) | > 100 µM (inactive) | > 100 µM (inactive) | > 100 µM (inactive) | > 100 µM (inactive) | > 100 µM (inactive) | > 100 µM (inactive) | > 100 µM (inactive) | > 100 µM (inactive) | 96.8 µM (inactive) | > 100 µM (inactive) | > 100 µM (inactive) | > 100 µM (inactive) | 17.9 µM (inactive) |
